Measurements published in patent EP1147080B1 (Wyeth Holdings Corporation, priority 1999, dated 2000).

What was measured:
MMP-1 = target: T1, MMP-1 (Homo sapiens, UniProt P03956); experiment: MMP-1 inhibition (thiopeptide or fluorescent peptide substrate)
T1 sequence (P03956 100-469): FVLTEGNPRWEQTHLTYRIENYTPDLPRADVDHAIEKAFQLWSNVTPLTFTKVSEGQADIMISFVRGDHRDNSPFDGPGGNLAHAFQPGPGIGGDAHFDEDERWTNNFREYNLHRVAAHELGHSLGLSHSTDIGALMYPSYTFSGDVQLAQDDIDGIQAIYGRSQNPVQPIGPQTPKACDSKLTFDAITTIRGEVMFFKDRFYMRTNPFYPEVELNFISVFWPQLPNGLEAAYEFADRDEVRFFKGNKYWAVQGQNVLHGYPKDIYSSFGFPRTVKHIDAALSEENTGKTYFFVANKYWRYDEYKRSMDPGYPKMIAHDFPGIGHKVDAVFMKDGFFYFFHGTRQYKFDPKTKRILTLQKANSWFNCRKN
Description: The enzyme activity is measured by the rate of the color increase. The thiopeptide substrate is made up fresh as a 20 mM stock in 100% DMSO and the DTNB is dissolved in 100% DMSO as a 100 mM stock and stored in the dark at room temperature. Both the substrate and DTNB are diluted together to 1 mM with substrate buffer (50 mM HEPES pH 7.5, 5 mM CaCl2) before use. The stock of enzyme is diluted with buffer (50 mM HEPES, pH 7.5, 5 mM CaCl2, 0.02% Brij) to the desired final concentration.
Alternatively, a fluorescent peptide substrate is used. In this test procedure, the peptide substrate contains a fluorescent group and a quenching group. Upon cleavage of the substrate by an MMP, the fluorescence that is generated is quantitated on the fluorescence plate reader. The assay is run in HCBC assay buffer (50mM HEPES, pH 7.0, 5 mM Ca^+2, 0.02% Brij, 0.5% Cysteine), with human recombinant MMP-1, MMP-9, or MMP-13. The substrate is dissolved in methanol and stored frozen in 1 mM aliquots. For the assay, substrate and enzymes are diluted in HCBC buffer to the desired concentrations. Compounds are added to the 96 well plate containing enzyme and the reaction is started by the addition of substrate.
For either the thiopeptide or fluorescent peptide test procedures, the slope of the line is calculated and represents the reaction rate. […] The mean (x±sem) of the control rate is calculated and compared for statistical significance (p<0.05) with drug-treated rates using Dunnett's multiple comparison test.

[1] = target: TNF-α converting enzyme (TACE) (Homo sapiens, UniProt P78536); experiment: Test procedure for measuring TACE inhibition (fluorescent peptidyl substrate); type: biochemical; conditions: Table 1
TNF-α converting enzyme (TACE), sequence (P78536 215-824): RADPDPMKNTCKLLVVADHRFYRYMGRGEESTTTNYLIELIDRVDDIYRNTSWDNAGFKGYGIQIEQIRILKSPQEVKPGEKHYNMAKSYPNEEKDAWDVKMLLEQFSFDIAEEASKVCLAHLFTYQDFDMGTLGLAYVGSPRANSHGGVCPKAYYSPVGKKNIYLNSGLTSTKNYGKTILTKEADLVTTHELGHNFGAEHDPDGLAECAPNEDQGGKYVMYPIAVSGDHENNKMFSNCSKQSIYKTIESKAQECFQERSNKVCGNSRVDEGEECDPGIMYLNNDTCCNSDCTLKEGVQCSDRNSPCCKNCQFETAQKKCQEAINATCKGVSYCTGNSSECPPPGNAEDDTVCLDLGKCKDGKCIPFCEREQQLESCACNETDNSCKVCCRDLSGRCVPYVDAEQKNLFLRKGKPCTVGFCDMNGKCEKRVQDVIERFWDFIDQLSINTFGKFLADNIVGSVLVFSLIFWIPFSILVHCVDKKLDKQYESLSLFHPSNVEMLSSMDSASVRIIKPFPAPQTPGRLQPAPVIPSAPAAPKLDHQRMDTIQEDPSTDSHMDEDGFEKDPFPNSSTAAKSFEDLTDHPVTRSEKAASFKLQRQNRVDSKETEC

Compound	IC50 (MMP-1) [nM]	IC50 [1] [nM]
CC#CCOc1ccc(OCC(=O)NO)cc1 [Example 11, 2-(4-But-2-ynyloxy-phenoxy)-N-hydroxy-acetamide]	10000	–
CC#CCOc1ccc([S+]([O-])C(CCCCNC(=O)CNC(=O)c2cccn2C)C(=O)NO)cc1 (centres unmarked) [Example 61, 1-Methyl-1H-pyrrole-2-carboxylic acid {[5-(4-but-2-ynyloxy-benzenesulfinyl)-5-hydroxycarbamoylpentyl-carbamoyl]-methyl}-amide]	5600	22.5
CC#CCOc1ccc([S+]([O-])C(CCCCNC(=O)C2c3ccccc3Oc3ccccc32)C(=O)NO)cc1 (centres unmarked) [Example 29, 9H-Xanthene-9-carboxylic acid [5-(4-but-2-ynyloxy-benzenesulfinyl)-5-hydroxycarbamoyl-pentyl]-amide]	2000	18.9
CC#CCOc1ccc([S+]([O-])C(CCCCNC(=O)C(c2ccccc2)c2ccccc2)C(=O)NO)cc1 (centres unmarked) [Example 30, 2-(4-But-2-ynyloxy-benzenesulfinyl)-6-diphenylacetylamino-hexanoic acid hydroxyamide]	3300	20.1
CC#CCOc1ccc(S(=O)(=O)C(CCCCNC(=O)C(c2ccccc2)c2ccccc2)C(=O)NO)cc1 (centres unmarked) [Example 40, 2-(4-But-2-ynyloxy-benzenesulfonyl)-6-diphenylacetylamino-hexanoic acid hydroxyamide]	–	59.1
CC#CCOc1ccc([S+]([O-])C(CCCCNC(=O)Cc2ccc(Cl)c(Cl)c2)C(=O)NO)cc1 (centres unmarked) [Example 26, 2-(4-But-2-ynyloxy-benzenesulfinyl)-6-[2-(3,4-dichloro-phenyl)-acetylamino]-hexanoic acid hydroxyamide]	–	29.9
CC#CCOc1ccc([S+]([O-])C(CCCCNC(=O)Cc2csc3ccccc23)C(=O)NO)cc1 (centres unmarked) [Example 32, 6-(2-Benzo[b]thiophen-3-yl-acetylamino)-2-(4-but-2-ynyloxy-benzenesulfinyl)-hexanoic acid hydroxyamide]	–	46.8
CC#CCOc1ccc(SC(CCCCNC(=O)CNC(=O)c2cnc3ccccc3c2)C(=O)NO)cc1 (centres unmarked) [Example 47, Quinoline-3-carboxylic acid {[5-(4-but-2-ynyloxy-phenylsulfanyl)-5-hydroxycarbamoyl-pentylcarbamoyl]-methyl}-amide]	–	18.9
CC#CCOc1ccc(SC(CCCCNC(=O)CNC(=O)c2ccccc2CCc2ccccc2)C(=O)NO)cc1 (centres unmarked) [Example 46]	–	84.2
CC#CCOc1ccc(SC(CCCCNC(=O)CNC(=O)C(c2ccccc2)c2ccccc2)C(=O)NO)cc1 (centres unmarked) [Example 49, 2-(4-But-2-ynyloxy-phenylsulfanyl)-6-(2-diphenylacetylamino-acetylamino)-hexanoic acid hydroxyamide]	–	53.8
CC#CCOc1ccc(S(=O)(=O)C(CCCCNC(=O)CNC(=O)c2nccc3ccccc23)C(=O)NO)cc1 (centres unmarked) [Example 68, Isoquinoline-1-carboxylic acid {[5-(4-but-2-ynyloxy-benzenesulfonyl)-5-hydroxycarbamoyl-pentylcarbamoyl]-methyl}-amide]	–	21.2
CC#CCOc1ccc(S(=O)(=O)C(CCCCNC(=O)CNC(=O)CN2C(=O)c3ccccc3C2=O)C(=O)NO)cc1 (centres unmarked) [Example 63, 2-(4-But-2-ynyloxy-benzenesulfonyl)-6-{2-[2-(1,3-dioxo-1,3-dihydro-isoindol-2-yl)-acetyl-amino]-acetylamino}-hexanoic acid hydroxyamide]	–	16.1
CC#CCOc1ccc(SC(CCCCNC(=O)c2ccccc2CCc2ccccc2)C(=O)NO)cc1 (centres unmarked) [Example 15, N-[5-(4-But-2-ynyloxy-phenylsulfanyl)-5-hydroxycarbamoyl-pentyl]-2-phenethylbenzamide]	–	138
CC#CCOc1ccc(SC(CCCCNC(=O)Cc2ccc(Cl)c(Cl)c2)C(=O)NO)cc1 (centres unmarked) [Example 16, 2-(4-But-2-ynyloxy-phenylsulfanyl)-6-[2-(3,4-dichloro-phenyl)-acetylamino]-hexanoic acid hydroxyamide]	–	24.9
CC#CCOc1ccc(SC(CCCCNC(=O)CN2C(=O)c3ccccc3C2=O)C(=O)NO)cc1 (centres unmarked) [Example 13, 2-(4-But-2-ynyloxy-phenylsulfanyl)-6-[2-(1,3-dioxo-1,3-dihydroiso-indol-2-yl)-acetylamino]-hexanoic acid hydroxyamide]	–	42.5
CC#CCOc1ccc(SC(CCCCNC(=O)c2nccc3ccccc23)C(=O)NO)cc1 (centres unmarked) [Example 21, Isoquinoline-1-carboxylic acid [5-(4-but-2-ynyloxy-phenylsulfanyl)-5-hydroxycarbamoylpentyl]-amide]	–	20.1
CC#CCOc1ccc(CCCC(=O)NO)cc1 [Example 12, 4-(4-But-2-ynyloxy-phenyl)-N-hydroxy-butyramide]	10000	–
CC#CCOc1ccc(S(=O)(=O)C(CCCCNC(=O)CNC(=O)C2c3ccccc3Oc3ccccc32)C(=O)NO)cc1 (centres unmarked) [Example 67, 9H-Xanthene-9-carboxylic acid {[5-(4-but-2-ynyloxy-benzenesulfonyl)-5-hydroxycarbamoyl-pentylcarbamoyl]-methyl}-amide]	–	34.8

Compound	IC50 (MMP-1) [nM]	IC50 [1] [nM]
CC#CCOc1ccc([S+]([O-])C(CCCCNC(=O)c2ccccc2CCc2ccccc2)C(=O)NO)cc1 (centres unmarked) [Example 25, N-[5-(4-But-2-ynyloxy-benzenesulfinyl)-5-hydroxycarbamoyl-pentyl]-2-phenethylbenzamide]	–	43.5
CC#CCOc1ccc(S(=O)(=O)C(CCCCNC(=O)c2cnc3ccccc3c2)C(=O)NO)cc1 (centres unmarked) [Example 38, Quinoline-3-carboxylic acid [5-(4-but-2-ynyloxy-benzenesulfonyl)-5-hydroxycarbamoylpentyl]-amide]	–	39.9
CC#CCOc1ccc(S(=O)(=O)C(CCCCNC(=O)CN2C(=O)c3ccccc3C2=O)C(=O)NO)cc1 (centres unmarked) [Example 36, 2-(4-But-2-ynyloxy-benzenesulfonyl)-6-[2-(1,3-dioxo-1,3-dihydro-isoindol-2-yl)-acetylamino]-hexanoic acid hydroxyamide]	–	16.8
CC#CCOc1ccc(SC(CCCCNC(=O)c2ccc3ccccc3n2)C(=O)NO)cc1 (centres unmarked) [Example 14, Quinoline-2-carboxylic acid [5-(4-but-2-ynyloxy-phenylsulfanyl)-5-hydroxycarbamoylpentyl]-amide]	–	62.9
CC#CCOc1ccc(S(=O)(=O)C(CCCCNC(=O)CNC(=O)c2ccccc2CCc2ccccc2)C(=O)NO)cc1 (centres unmarked) [Example 64, N-{[5-(4-But-2-ynyloxy-benzenesulfonyl)-5-hydroxycarbamoyl-pentylcarbamoyl]-methyl}-2-phenethyl-benzamide]	–	42
CC#CCOc1ccc([S+]([O-])C(CCCCNC(=O)c2cnc3ccccc3c2)C(=O)NO)cc1 (centres unmarked) [Example 27, Quinoline-3-carboxylic acid [5-(4-but-2-ynyloxy-benzenesulfinyl)-5-hydroxycarbamoylpentyl]-amide]	–	46.3
2-(4-But-2-ynyloxy-benzenesulfinyl)-6-diphenylacetylamino-hexanoic acid hydroxyamide [Example 60]	–	40.9
CC#CCOc1ccc(SC(CCCCNC(=O)CNC(=O)c2cccn2C)C(=O)NO)cc1 (centres unmarked) [Example 51, 1-Methyl-1H-pyrrole-2-carboxylic acid ([5-(4-but-2-ynyloxy-phenylsulfanyl)-5-hydroxycarbamoyl-pentylcarbamoyl]-methyl}-amide]	–	22.4
CC#CCOc1ccc(SC(CCCCNC(=O)CNC(=O)Cc2csc3ccccc23)C(=O)NO)cc1 (centres unmarked) [Example 52]	–	70.2
CC#CCOc1ccc([S+]([O-])C(CCCCNC(=O)Cc2c[nH]c3ccccc23)C(=O)NO)cc1 (centres unmarked) [Example 33, 2-(4-But-2-ynyloxy-benzenesulfinyl)-6-(2-1H-indol-3-yl-acetylamino)-hexanoic acid hydroxyamide]	–	35.6
N-[5-(4-But-2-ynyloxy-benzenesulfonyl)-5-hydroxycarbamoyl-pentyl]-2-phenethyl-benzamide [Example 34]	–	147
CC#CCOc1ccc(SC(CCCCNC(=O)CNC(=O)c2nccc3ccccc23)C(=O)NO)cc1 (centres unmarked) [Example 50, Isoquinoline-1-carboxylic acid {[5-(4-but-2-ynyloxy-phenylsulfanyl)-5-hydroxycarbamoylpentylcarbamoyl]-methyl}-amide]	–	35.9
CC#CCOc1ccc([S+]([O-])C(CCCCNC(=O)CNC(=O)c2ccc3ccccc3n2)C(=O)NO)cc1 (centres unmarked) [Example 54]	–	27.2
CC#CCOc1ccc(SC(CCCCNC(=O)CCCc2cccs2)C(=O)NO)cc1 (centres unmarked) [Example 18, 2-(4-But-2-ynyloxy-phenylsulfanyl)-6-(4-thiophen-2-yl-butyrylamino)-hexanoic acid hydroxyamide]	–	36.9
CC#CCOc1ccc(SC(CCCCNC(=O)C(c2ccccc2)c2ccccc2)C(=O)NO)cc1 (centres unmarked) [Example 20, 2-(4-But-2-ynyloxy-phenylsulfanyl)-6-diphenylacetylamino-hexanoic acid hydroxyamide]	–	88.6
CC#CCOc1ccc(S(=O)(=O)C(CCCCNC(=O)Cc2csc3ccccc23)C(=O)NO)cc1 (centres unmarked) [Example 42, 6-(2-Benzo[b]thiophen-3-yl-acetylamino)-2-(4-but-2-ynyloxy-benzenesulfonyl)-hexanoic acid hydroxyamide]	–	24.9
CC#CCOc1ccc(S(=O)(=O)C(CCCCNC(=O)c2nccc3ccccc23)C(=O)NO)cc1 (centres unmarked) [Example 41, Isoquinoline-1-carboxylic acid [5-(4-but-2-ynyloxy-benzenesulfonyl)-5-hydroxycarbamoyl-pentyl]-amide]	–	37.3
